The values below are quoted from earlier work in patent US7714131B2, “Process for the stereoselective preparation of (−)-halofenate and derivatives thereof” (Metabolex, Inc., priority 2005, dated 2010).

This series addresses cytochrome P450 2C9 (Homo sapiens, UniProt P11712). Conditions: compared to the (+)-enantiomer of halofenic acid.

Sequence of cytochrome P450 2C9 (P11712 whole entry): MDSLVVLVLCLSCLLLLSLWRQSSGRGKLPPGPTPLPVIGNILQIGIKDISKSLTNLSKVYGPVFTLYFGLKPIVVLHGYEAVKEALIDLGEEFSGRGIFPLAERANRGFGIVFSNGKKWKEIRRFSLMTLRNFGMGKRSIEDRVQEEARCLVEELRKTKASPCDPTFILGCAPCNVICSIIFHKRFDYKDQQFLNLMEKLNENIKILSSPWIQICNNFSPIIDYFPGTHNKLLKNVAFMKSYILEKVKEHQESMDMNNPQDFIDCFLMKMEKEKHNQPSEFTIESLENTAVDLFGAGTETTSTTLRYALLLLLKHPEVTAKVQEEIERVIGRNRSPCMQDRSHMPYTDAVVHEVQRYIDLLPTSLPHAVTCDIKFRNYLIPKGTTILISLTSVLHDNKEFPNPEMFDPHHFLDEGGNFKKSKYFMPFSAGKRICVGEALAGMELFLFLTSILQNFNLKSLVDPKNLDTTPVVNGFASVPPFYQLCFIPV

With `O=C(O)C(Oc1cccc(C(F)(F)F)c1)c1ccc(Cl)cc1` (single isomer, unassigned; (-)) [(−)-enantiomer of halofenic acid, (4-chlorophenyl)(3-trifluoromethylphenoxy)acetic acid], the “ability to inhibit cytochrome P450 2C9, relative activity” value is “about twenty-fold less active”.
